Test results taken from patent publication US12171230B2, “Herbicidal compositions” (Bayer Aktiengesellschaft, priority 2018, dated 2024).

How the values were obtained:
Assay type in all cases: in vivo
Digitaria horizontalis = test: Post-emergence herbicidal action against Digitaria horizontalis; details: A3/Asulam, post-emergence, g of a.i./ha by row: 720, 100, 100 + 720
Text: (§1) The following abbreviations are used in the description and the tables that follow: • g of a.i./ha=grams of active substance (active ingredient) (=100% active compound) per hectare; • The sum total of the effects of the individual applications is reported under E^A; • expected values according to Colby are each reported under E^C.
(§2) The rating period is reported in days after application (DAT).

Brachiaria plantaginea = test: Post-emergence herbicidal action against Brachiaria plantaginea; details: A3/Asulam; post-emergence; g of a.i./ha by row: 720, 100, 100 + 720
Text: as §1, §2

Setaria viridis = test: Post-emergence herbicidal action against Setaria viridis; details: 21 DAT
Experimental: (§3) When the observed efficacies exceed the formal sum total of the values of the tests with individual applications, they also exceed the expected value according to Colby, which is calculated using the formula below and is likewise regarded as an indication of synergism (cf. S. R. Colby; in Weeds 15 (1967) p. 20 to 22): E^C=A+B−([…])
(§4) Here: • A=efficacy of the active compound (A) in % at an application rate of a g a.i./ha; • B=efficacy of the active compound (B) in % at an application rate of b g a.i./ha; • E^C=expected value of the effect of the combination (A)+(B) in % at the combined application rate a+b g a.i./ha.
(§5) Seeds or rhizome pieces of mono- and dicotyledonous weeds are placed in sandy loam in pots, covered with soil and grown in a greenhouse under good growth conditions (temperature, air humidity, water supply). Three weeks after sowing, the test plants were treated at the three-leaf stage with the compositions according to the invention. The compositions according to the invention formulated as spray powders or as emulsion concentrates were sprayed onto the green plant parts in various dosages with an application rate of 300 to 800 l/ha of water (equivalent). After the test plants have been left to stand in the greenhouse under optimal growth conditions for about 3 to 4 weeks, the action of the preparations is scored visually in comparison to untreated controls. The compositions according to the invention also have good post-emergence herbicidal activity against a broad spectrum of economically important gramineous and broadleaf weeds.

Kochia scoparia [1] = test: Post-emergence herbicidal action against Kochia scoparia; details: 21 DAT
Echinochloa crus-galli = test: Post-emergence herbicidal action against Echinochloa crus-galli; details: 21 DAT
Experimental: as §3, §4, §5

Kochia scoparia [2] = test: Post-emergence herbicidal action against Kochia scoparia; details: g of a.i./ha by row: 30, 5, 5 + 30
Text: as §1, §2

Abutilon theophrasti [3] = test: Post-emergence herbicidal action against Abutilon theophrasti; details: g of a.i./ha: 90, 30, 15, 15 + 90, 15 + 30
Text: as §1, §2

Bidens pilosa = test: Post-emergence herbicidal action against Bidens pilosa; details: 21 DAT
Experimental: as §3, §4, §5

Eleusine indica = test: Post-emergence herbicidal action against Eleusine indica; details: 21 DAT; 1.7 g a.i./ha
Amaranthus palmeri = test: Post-emergence herbicidal action against Amaranthus palmeri; details: 21 DAT; for Herbicidal action: 5 g a.i./ha
Experimental: as §3, §4, §5

Sorghum halepense = test: Post-emergence herbicidal action against Sorghum halepense; details: 21 DAT; 15 g of a.i./ha
Experimental: as §3, §4, §5

Abutilon theophrasti [4] = test: Post-emergence herbicidal action against Abutilon theophrasti; details: 21 DAT
Pharbitis purpurea = test: Post-emergence herbicidal action against Pharbitis purpurea; details: 21 DAT; 15 g a.i./ha
Experimental: as §3, §4, §5

COC(=O)NS(=O)(=O)c1ccc(N)cc1 [(B2.4) Asulam]
Herbicidal action 28 DAT against Digitaria horizontalis (Digitaria horizontalis; first sub-table): 0%
Herbicidal action 28 DAT against Digitaria horizontalis (Digitaria horizontalis; second sub-table): 0%
Herbicidal action 28 DAT against Brachiaria plantaginea (Brachiaria plantaginea): 0%

C=CC1(C(=O)N[C@H]2CO[C@@H](C(=O)OC)C2)CC(c2cc(Cl)cc(Cl)c2)=NO1 (relative stereo) [Compound A2, methyl rel-(2R,4R)-4-[[3-(3,5-dichlorophenyl)-5-vinyl-4H-isoxazole-5-carbonyl]amino]tetrahydrofuran-2-carboxylate]
Herbicidal action (Setaria viridis; 1.7 g a.i./ha): 10%
Herbicidal action (Kochia scoparia [1]; 5 g a.i./ha): 40%
Herbicidal action (Echinochloa crus-galli; 15 g a.i./ha): 80%
Herbicidal action 21 DAT against Kochia scoparia (Kochia scoparia [2]): 40%
Herbicidal action 21 DAT against Abutilon theophrasti (Abutilon theophrasti [3]): 75%
Herbicidal action (Bidens pilosa; 5 g a.i./ha): 45%
Herbicidal action (Bidens pilosa; 15 g a.i./ha): 50%
Herbicidal action (Bidens pilosa; 45 g a.i./ha): 70%
Herbicidal action (Eleusine indica): 10%
Herbicidal action (Amaranthus palmeri): 45%

CC(C)OC(=O)[C@H]1C[C@@H](NC(=O)C2(C)CC(c3cccc(F)c3)=NO2)CO1 (relative stereo) [Compound A4, isopropyl rel-(2R,4R)-4-[[3-(3-fluorophenyl)-5-methyl-4H-isoxazole-5-carbonyl]amino]tetrahydrofuran-2-carboxylate]
Herbicidal action against Setaria viridis (Setaria viridis; 1.5 g of a.i./ha): 10%
Herbicidal action (Setaria viridis; 5 g a.i./ha): 20%
Herbicidal action (Setaria viridis; 15 g a.i./ha): 60%
Herbicidal action against Setaria viridis (Setaria viridis; 15 g of a.i./ha): 60%
Herbicidal action against Sorghum halepense (Sorghum halepense): 10%
Herbicidal action (Kochia scoparia [1]; 5 g a.i./ha): 10%
Herbicidal action (Kochia scoparia [1]; 15 g a.i./ha): 10%
Herbicidal action against Abutilon theophrasti (Abutilon theophrasti [4]; 5 g of a.i./ha): 10%
Herbicidal action against Abutilon theophrasti (Abutilon theophrasti [4]; 15 g of a.i./ha): 10%
Herbicidal action against Abutilon theophrasti (Abutilon theophrasti [4]; 45 g of a.i./ha): 20%
Herbicidal action (Echinochloa crus-galli; 5 g a.i./ha): 10%
Herbicidal action against Echinochloa crus-galli (Echinochloa crus-galli; 15 g of a.i./ha): 20%
Herbicidal action (Pharbitis purpurea): 60%
Herbicidal action (Bidens pilosa; 5 g a.i./ha): 10%
Herbicidal action against Bidens pilosa (Bidens pilosa; 5 g of a.i./ha): 10%
Herbicidal action (Bidens pilosa; 15 g a.i./ha): 10%
Herbicidal action against Bidens pilosa (Bidens pilosa; 15 g of a.i./ha): 10%
Herbicidal action (Bidens pilosa; 45 g a.i./ha): 30%
Herbicidal action (Eleusine indica): 20%
Herbicidal action against Amaranthus palmeri (res.) (Amaranthus palmeri; 15 g of a.i./ha): 10%
Herbicidal action against Amaranthus palmeri (res.) (Amaranthus palmeri; 45 g of a.i./ha): 30%
Herbicidal action (Amaranthus palmeri; (res.)): 10%
